Laboratory results: patent publication US20210261512A1, “NOVEL COMPOUNDS” (INFLAZOME LIMITED, priority 2018, published 2021)

Tests used:
NLRP3 [1] = molecular target: T1, NLRP3 (Homo sapiens, UniProt Q96P20); test: Human whole blood IL1β release assay; type: cell-based; conditions: LPS 1 μg/ml, nigericin 10 μM, IL-1β AlphaLisa, 10 μM top dose (Example 2: top dose of 30 μM), read-out: HWB IC50
Protocol: For systemic delivery, the ability to inhibit NLRP3 when the compounds are present within the bloodstream is of great importance. For this reason, the NLRP3 inhibitory activity of a number of compounds in human whole blood was investigated in accordance with the following protocol.
Human whole blood in sodium-heparin or lithium-heparin tubes was obtained from healthy donors from a volunteer donor panel. • 1. Plate out 80 μl of whole blood containing 1 μg/ml of LPS in 96-well, clear bottom cell culture plate (Corning #3585) • 2. Add 10 μl compound (8 points half-log dilution with 10 μM top dose, unless stated otherwise) or vehicle (DMSO 0.1% FAC) to the appropriate wells • 3. Incubate for 3 hrs at 37° C., 5% CO2 • 4. Add 10 μl nigericin (Sigma #N7143) (10 μM FAC) to all wells • 5. Incubate for 1 hr at 37° C., 5% CO2 • 6. At the end of the incubation period, spin plates at 300×g for 5 mins to pellet cells and remove 20 μl of supernatant and add to 96-well v-bottom plates for IL-1β analysis (note: these plates containing the supernatants can be stored at −80° C. to be analysed at a later date) • 7. IL-1β was measured according to the manufacturer protocol (Perkin Elmer-AlphaLisa IL-1 Kit AL220F-5000) • 8. IC50 data is fitted to a non-linear regression equation (log inhibitor vs response-variable slope 4-parameters)

NLRP3 [2] = molecular target: T1, NLRP3; test: THP-1 cells pyroptosis assay; type: cell-based; set-up: Seed THP-1 cells (25,000 cells/well) containing 1.0 μg/ml LPS; host or cells: THP-1; conditions: LPS 1.0 μg/ml, nigericin 5 μM, resazurin readout, 10 μM top dose (Example 2: top dose of 30 μM)
In short: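 THP-1 cells (25,000/well) primed with 1 μg/ml LPS in serum-free RPMI, treated with compound (8-point dilution, 10 μM top unless stated; 0.1% DMSO) 3 h at 37°C, then nigericin 5 μM 1 h. Viability read by resazurin (100 μM, 1-2 h) fluorescence; IC50 from 4-parameter fit.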

T1 sequence (Q96P20 whole entry): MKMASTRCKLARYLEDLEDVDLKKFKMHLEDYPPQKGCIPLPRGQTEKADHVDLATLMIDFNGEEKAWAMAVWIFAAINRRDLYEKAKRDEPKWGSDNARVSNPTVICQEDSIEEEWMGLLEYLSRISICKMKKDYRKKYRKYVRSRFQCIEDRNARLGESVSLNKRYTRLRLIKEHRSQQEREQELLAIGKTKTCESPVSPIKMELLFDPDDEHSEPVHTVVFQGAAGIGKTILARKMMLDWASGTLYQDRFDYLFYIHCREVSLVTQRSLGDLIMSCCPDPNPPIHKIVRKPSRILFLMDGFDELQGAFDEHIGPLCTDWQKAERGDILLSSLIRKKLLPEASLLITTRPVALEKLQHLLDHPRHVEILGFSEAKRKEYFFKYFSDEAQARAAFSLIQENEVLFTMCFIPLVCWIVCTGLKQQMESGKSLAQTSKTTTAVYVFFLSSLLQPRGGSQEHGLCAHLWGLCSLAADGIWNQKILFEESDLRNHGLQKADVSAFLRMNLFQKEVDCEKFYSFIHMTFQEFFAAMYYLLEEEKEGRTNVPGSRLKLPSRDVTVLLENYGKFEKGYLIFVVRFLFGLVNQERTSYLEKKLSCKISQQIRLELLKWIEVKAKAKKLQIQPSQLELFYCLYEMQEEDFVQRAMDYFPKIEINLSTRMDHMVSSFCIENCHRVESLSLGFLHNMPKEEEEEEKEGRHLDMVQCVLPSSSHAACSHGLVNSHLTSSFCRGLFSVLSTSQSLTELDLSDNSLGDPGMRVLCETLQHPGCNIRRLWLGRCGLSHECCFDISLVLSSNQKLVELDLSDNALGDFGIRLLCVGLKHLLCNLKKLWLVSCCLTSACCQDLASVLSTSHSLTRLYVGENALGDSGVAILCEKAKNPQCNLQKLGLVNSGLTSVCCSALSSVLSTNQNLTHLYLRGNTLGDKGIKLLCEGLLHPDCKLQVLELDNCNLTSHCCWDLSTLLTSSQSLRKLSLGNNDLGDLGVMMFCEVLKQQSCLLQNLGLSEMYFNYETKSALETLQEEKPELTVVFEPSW

IC50 (NLRP3 [1]) [nM]	IC50 (NLRP3 [2]) [nM]	Structure (SMILES)
≤ 500	≤ 500	CN1CCCC12CCN(S(=O)(=O)c1nnc(Nc3c(-c4ccnc(OC(F)F)c4)ccc4c3CCC4)[nH]1)CC2 [Example 201, N-(5-(2-(difluoromethoxy)pyridin-4-yl)-2,3-dihydro-1H-inden-4-yl)-5-((1-methyl-1,8-diazaspiro[4.5]decan-8-yl)sulfonyl)-4H-1,2,4-triazol-3-amine]
≤ 1000	≤ 500	CN1CCC12CCN(S(=O)(=O)c1nnc(Nc3c(-c4ccnc(OC(F)F)c4)ccc4c3CCO4)[nH]1)CC2 [Example 202, N-(5-(2-(difluoromethoxy)pyridin-4-yl)-2,3-dihydrobenzofuran-4-yl)-5-((1-methyl-1,7-diazaspiro[3.5]nonan-7-yl)sulfonyl)-4H-1,2,4-triazol-3-amine]
≤ 5000	≤ 500	COc1cc(-c2ccc3c(c2Nc2nnc(S(=O)(=O)N4CCC5(CCN5C)CC4)[nH]2)CCO3)ccn1 [Example 203, N-(5-(2-methoxypyridin-4-yl)-2,3-dihydrobenzofuran-4-yl)-5-((1-methyl-1,7-diazaspiro[3.5]nonan-7-yl)sulfonyl)-4H-1,2,4-triazol-3-amine]
≤ 1000	≤ 500	COc1cc(-c2ccc3c(c2Nc2nnc(S(=O)(=O)N4CCC5(CCN5C)CC4)[nH]2)CCC3)ccn1 [Example 204, N-(5-(2-methoxypyridin-4-yl)-2,3-dihydro-1H-inden-4-yl)-5-((1-methyl-1,7-diazaspiro[3.5]nonan-7-yl)sulfonyl)-4H-1,2,4-triazol-3-amine]
≤ 5000	≤ 500	CN1CCCC12CCN(S(=O)(=O)c1nnc(Nc3c(-c4ccnc(OC(F)F)c4)ccc4c3CCO4)[nH]1)CC2 [Example 210, N-(5-(2-(difluoromethoxy)pyridin-4-yl)-2,3-dihydrobenzofuran-4-yl)-5-((1-methyl-1,8-diazaspiro[4.5]decan-8-yl)sulfonyl)-4H-1,2,4-triazol-3-amine]
≤ 5000	≤ 500	COc1cc(-c2ccc3c(c2Nc2nnc(S(=O)(=O)N4CCC5(CCCN5C)CC4)[nH]2)CCO3)ccn1 [Example 211, N-(5-(2-methoxypyridin-4-yl)-2,3-dihydrobenzofuran-4-yl)-5-((1-methyl-1,8-diazaspiro[4.5]decan-8-yl)sulfonyl)-4H-1,2,4-triazol-3-amine]
≤ 10000	≤ 5000	Cc1cc(-c2ccc3c(c2Nc2nnc(S(=O)(=O)N4CCC(N(C)C)CC4)[nH]2)CCO3)ccn1 [Example 217, N,N-dimethyl-1-((5-((5-(2-methylpyridin-4-yl)-2,3-dihydrobenzofuran-4-yl)amino)-4H-1,2,4-triazol-3-yl)sulfonyl)piperidin-4-amine]
≤ 500	≤ 500	[2H]C([2H])([2H])Oc1cc(-c2ccc3c(c2Nc2nnc(S(=O)(=O)N4CCC(N(C)C)CC4)[nH]2)CCO3)ccn1 [Example 218, 1-((5-((5-(2-(methoxy-d)pyridin-4-yl)-2,3-dihydrobenzofuran-4-yl)amino)-4H-1,2,4-triazol-3-yl)sulfonyl)-N,N-dimethylpiperidin-4-amine]
≤ 1000	≤ 500	CN(C)C1CCN(S(=O)(=O)c2nnc(Nc3c(-c4ccncc4)ccc4c3CCC4)[nH]2)CC1 [Example 219, N,N-dimethyl-1-((5-((5-(pyridin-4-yl)-2,3-dihydro-1H-inden-4-yl)amino)-4H-1,2,4-triazol-3-yl)sulfonyl)piperidin-4-amine]
≤ 5000	≤ 1000	CN(C)C1CCN(S(=O)(=O)c2nnc(Nc3c(-c4ccncc4)ccc4c3CCO4)[nH]2)CC1 [Example 220, N,N-dimethyl-1-((5-((5-(pyridin-4-yl)-2,3-dihydrobenzofuran-4-yl)amino)-4H-1,2,4-triazol-3-yl)sulfonyl)piperidin-4-amine]
≤ 5000	≤ 500	Cc1cc(-c2ccc3c(c2Nc2nnc(S(=O)(=O)N4CCC(N(C)C)CC4)[nH]2)CCC3)ccn1 [Example 221, N,N-dimethyl-1-((5-((5-(2-methylpyridin-4-yl)-2,3-dihydro-1H-inden-4-yl)amino)-4H-1,2,4-triazol-3-yl)sulfonyl)piperidin-4-amine]
≤ 1000	≤ 500	CN(C)C1CCN(S(=O)(=O)c2nnc(Nc3c(-c4ccnc(OC(F)F)c4)ccc4c3CCC4)[nH]2)CC1 [Example 222, 1-((5-((5-(2-(difluoromethoxy)pyridin-4-yl)-2,3-dihydro-1H-inden-4-yl)amino)-4H-1,2,4-triazol-3-yl)sulfonyl)-N,N-dimethylpiperidin-4-amine]
≤ 1000	≤ 500	CN(C)C1CCN(S(=O)(=O)c2nnc(Nc3c4c(c(F)c5c3CCC5)CCC4)[nH]2)CC1 [Example 224, 1-((5-((8-fluoro-1,2,3,5,6,7-hexahydro-s-indacen-4-yl)amino)-4H-1,2,4-triazol-3-yl)sulfonyl)-N,N-dimethylpiperidin-4-amine]
≤ 1000	≤ 500	CN(C)C1CCN(S(=O)(=O)c2nnc(Nc3c(-c4ccnc(OC(F)F)c4)ccc4c3CCO4)[nH]2)CC1 [Example 225, 1-((5-((5-(2-(difluoromethoxy)pyridin-4-yl)-2,3-dihydrobenzofuran-4-yl)amino)-4H-1,2,4-triazol-3-yl)sulfonyl)-N,N-dimethylpiperidin-4-amine]
≤ 500	≤ 500	[2H]C([2H])([2H])Oc1cc(-c2ccc3c(c2Nc2nnc(S(=O)(=O)N4CCC(N(C)C)CC4)[nH]2)CCC3)ccn1 [Example 227, 1-((5-((5-(2-(methoxy-d3)pyridin-4-yl)-2,3-dihydro-1H-inden-yl)amino)-4H-1,2,4-triazol-3-yl)sulfonyl)-N,N-dimethylpiperidin-4-amine]
≤ 1000	≤ 500	COc1cc(-c2ccc3c(c2Nc2nnc(S(=O)(=O)N4CCC(N(C)C)CC4)[nH]2)CCC3)ccn1 [Example 228, 1-((5-((5-(2-methoxypyridin-4-yl)-2,3-dihydro-1H-inden-4-yl)amino)-4H-1,2,4-triazol-3-yl)sulfonyl)-N,N-dimethylpiperidin-4-amine]
≤ 5000	≤ 500	CC(C)(O)[C@H]1CCN(S(=O)(=O)c2nnc(Nc3c4c(cc5c3CCC5)CCC4)[nH]2)C1 [Example 233, (S)-2-(1-((5-((1,2,3,5,6,7-hexahydro-s-indacen-4-yl)amino)-4H-1,2,4-triazol-3-yl)sulfonyl)pyrrolidin-3-yl)propan-2-ol]
≤ 500	≤ 500	CCN1CCC2(C1)CN(S(=O)(=O)c1nnc(Nc3c4c(cc5c3CCC5)CCC4)[nH]1)C2 [Example 240, 5-((6-ethyl-2,6-diazaspiro[3.4]octan-2-yl)sulfonyl)-N-(1,2,3,5,6,7-hexahydro-s-indacen-4-yl)-4H-1,2,4-triazol-3-amine]
≤ 1000	≤ 500	CC(C)c1cc(F)cc(C(C)C)c1Nc1nc(S(=O)(=O)N2CCC(CN(C)C)C2)n[nH]1 (stereo not shown) [Example 241, 3-((3-((dimethylamino)methyl)pyrrolidin-1-yl)sulfonyl)-N-(4-fluoro-2,6-diisopropylphenyl)-1H-1,2,4-triazol-5-amine]
≤ 500	≤ 500	CC(C)c1cc(F)cc(C(C)C)c1Nc1nnc(S(=O)(=O)N2CC3(CCN(C)C3)C2)[nH]1 [Example 242, N-(4-fluoro-2,6-diisopropylphenyl)-5-((6-methyl-2,6-diazaspiro[3.4]octan-2-yl)sulfonyl)-4H-1,2,4-triazol-3-amine]
≤ 5000	≤ 1000	O=S(=O)(c1nnc(Nc2c3c(cc4c2CCC4)CCC3)[nH]1)N1CCC2(CCCN2C2CC2)CC1 [Example 246, 5-((1-cyclopropyl-1,8-diazaspiro[4.5]decan-8-yl)sulfonyl)-N-(1,2,3,5,6,7-hexahydro-s-indacen-4-yl)-4H-1,2,4-triazol-3-amine]
≤ 1000	≤ 500	COc1cc(-c2cc(F)cc(C(C)C)c2Nc2nnc(S(=O)(=O)N3CC4(CCN(C)C4)C3)[nH]2)ccn1 [Example 248, N-(4-fluoro-2-isopropyl-6-(2-methoxypyridin-4-yl)phenyl)-5-((6-methyl-2,6-diazaspiro[3.4]octan-2-yl)sulfonyl)-4H-1,2,4-triazol-3-amine]

Structure (SMILES)	IC50 (NLRP3 [1]) [nM]	IC50 (NLRP3 [2]) [nM]
O=S(=O)(c1nnc(Nc2c3c(cc4c2CCC4)CCC3)[nH]1)N1CC2(CCN(CCF)C2)C1 [Example 239, 5-((6-(2-fluoroethyl)-2,6-diazaspiro[3.4]octan-2-yl)sulfonyl)-N-(1,2,3,5,6,7-hexahydro-s-indacen-4-yl)-4H-1,2,4-triazol-3-amine]	≤ 5000	≤ 1000
